Measured values as given in patent publication US20240254121A1, “ALKYLAMIDE SUBSTITUTED, ANNULATED IMIDAZOLES AND USE THEREOF AS INSECTICIDES” (Bayer Aktiengesellschaft, priority 2021, published 2024).

Tests used:
Type in all cases: in vivo
[1] = tested on: adult engorged female ticks (Rhipicephalus microplus); test: Rhipicephalus (Boophilus) microplus injection test; conditions: 4 μg/tick, egg deposition after 7 days
Method: Rhipicephalus (Boophilus) Microplus—Injection Test
• Solvent: Dimethyl Sulfoxide
To produce a suitable preparation of active compound, 10 mg of active compound are dissolved in 0.5 mL solvent, and the concentrate is diluted with solvent to the desired concentration.
Five adult engorged female ticks (Rhipicephalus microplus) are injected with 1 μL compound solution into the abdomen. The ticks are transferred into replica plates and incubated in a climate chamber.
After 7 days egg deposition of fertile eggs is monitored. Eggs where fertility is not visible are stored in a climate chamber till hatching after about 42 days. An efficacy of 100% means all eggs are infertile; 0% means all eggs are fertile.

[2] = tested on: adult flies Musca domestica strain WHO-N; test: Musca domestica test (MUSCDO surface treatment & contact assay); conditions: 24 hours after contact, read-out: efficacy (mortality); for mortality at 20 mg/m2: surface concentration 20 mg/m^2, 30 minutes exposure; for mortality at 4 mg/m2: surface concentration 4 mg/m^2, 30 minutes exposure
Method: Musca domestica Test (MUSCDO Surface Treatment & Contact Assay) • Solvent: Aceton+2000 ppm rapeseed oil methyl ester (RME)
(§1) In order to produce a sufficient, active ingredient containing solution it is necessary to solve the test compound in the solvent-mix (acetone at 2 mg/ml/RME 2000 ppm). This solution is pipetted onto a glazed tile and after evaporation of the acetone, adult flies of the species Musca domestica strain WHO-N are placed onto the dried surface. The exposure time is 30 minutes. Mortality in percent (%) is determined 24 hours after contact of the insects to the treated surface. 100% mortality means that all tested insects are dead, whereas 0% means that no insect died.

[3] = tested on: fall armyworm larvae (Spodoptera frugiperda); test: Spodoptera frugiperda spray test; conditions: 168 h, maize leaf sections, after 7 days
Method: Spodoptera frugiperda—Spray Test • Solvent: 78.0 parts by weight acetone • 1.5 parts by weight dimethylformamide • Emulsifier: alkylarylpolyglycol ether
(§2) To produce a suitable preparation of active compound, 1 part by weight of active compound is mixed with the stated amount of solvents and is diluted with water, containing an emulsifier concentration of 1000 ppm, to the desired concentration. Further test concentrations are prepared by dilution with emulsifier containing water.
Maize (Zea mays) leaf sections are sprayed with a preparation of the active ingredient of the desired concentration. Once dry, the leaf sections are infested with fall armyworm larvae (Spodoptera frugiperda).
After 7 days mortality in % is determined. 100% means all caterpillars have been killed and 0% means none of the caterpillars have been killed.

[4] = tested on: adult mosquitoes Aedes aegypti strain MONHEIM; test: Aedes aegypti test (AEDSAE surface treatment & contact assay); conditions: 24 hours after contact, read-out: efficacy (mortality); for mortality at 20 mg/m2: surface concentration 20 mg/m^2, 30 minutes exposure; for mortality at 4 mg/m2: surface concentration 4 mg/m^2, 30 minutes exposure
Method: Aedes aegypti Test (AEDSAE Surface Treatment & Contact Assay) • Solvent: Aceton+2000 ppm rapeseed oil methyl ester (RME)
as §1, with “mosquitoes” for “flies”, “Aedes aegypti” for “Musca domestica”, “MONHEIM” for “WHO-N”

[5] = tested on: cattle tick larvae (Rhipicephalus microplus); test: Rhipicephalus (Boophilus) microplus in-vitro contact test, larval cattle tick (strain Parkhurst, resistant against synthetic pyrethroids); conditions: after 48 hours, read-out: efficacy (larvae dead or moribund); for pest or weed control at 1 µg/cm2, 100 g/ha: 1 μg/cm^2 (=100 g/ha)
Method: Rhipicephalus (Boophilus) Microplus—In-Vitro Contact Tests Larval Cattle Tick (Strain Parkhurst, Resistant Against Synthetic Pyrethroids)
(§3) 9 mg compound is solved in 1 mL acetone and diluted with acetone to the desired concentration. 250 μL of the test solution is filled in 25 mL glass test tubes and homogeneously distributed on the inner walls by rotation and tilting on a shaking device (2 h at 30 rpm). With a compound concentration of 900 ppm, an inner surface of 44.7 cm^2 and a homogeneous distribution, a dose of 5 μg/cm^2 is achieved.
After the solvent has evaporated, each test tube is filled with 20-50 cattle tick larvae (Rhipicephalus microplus), closed with a perforated lid and incubated in a horizontal position at 85% relative humidity and 27° C. in an incubator. After 48 hours efficacy is determined. The larvae are patted on the ground of the tubes and negative geotactic behavior is recorded.
An efficacy of 100% means all larvae are dead or moribund; 0% means no larvae are dead or moribund.

[6] = tested on: brown planthopper (Nilaparvata lugens); test: Nilaparvata lugens spray test; conditions: 96 h, rice plants, after 4 days
Method: Nilaparvata lugens—Spray Test • Solvent: 78.0 parts by weight of acetone • 1.5 parts by weight of dimethylformamide • Emulsifier: alkylarylpolyglycol ether
as §2
Rice plants (Oryza sativa) are sprayed with a preparation of the active ingredient of the desired concentration and the plants are infested with the brown planthopper (Nilaparvata lugens).
After 4 days mortality in % is determined. 100% means all planthoppers have been killed and 0% means none of the planthoppers have been killed.

[7] = tested on: larvae of the banded cucumber beetle (Diabrotica balteata); test: Diabrotica balteata spray test; conditions: 168 h, 100 g/ha (=32 μg/well), wheat seeds, after 7 days, read-out: efficacy (seedling growth)
Method: Diabrotica Balteata—Spray Test
• Solvent: 78.0 Parts by Weight of Acetone • 1.5 parts by weight of dimethylformamide • Emulsifier: Alkylarylpolyglycol Ether
as §2, with “solvent,” for “solvents”, “and the concentrate” for “and”
Soaked wheat seeds (Triticum aestivum) are placed in a multiple well plate filled with agar and some water and are incubated for 1 day to germinate (5 seeds per well). The germinated wheat seeds are sprayed with a test solution containing the desired concentration of the active ingredient. Afterwards each unit is infected with 10-20 larvae of the banded cucumber beetle (Diabrotica balteata).
After 7 days efficacy in % is determined. 100% means all the seedlings have grown up like in the untreated, uninfected control; 0% means none of the seedlings have grown.

[8] = tested on: green peach aphid (Myzus persicae); test: Myzus persicae oral test; conditions: 120 h, after 5 days
Method: Myzus persicae—Oral Test • Solvent: 100 parts by weight acetone
(§4) To produce a suitable preparation of active compound, 1 part by weight of active compound is mixed with the stated amount of solvent, and the concentrate is diluted with water to the desired concentration.
(§5) 50 μL compound solution is filled in microtiter plates and 150 μL IPL41 insect medium (33%+15% sugar) is added to obtain a total volume of 200 μL per well. Afterwards the plates are sealed with parafilm through which a mixed population of the green peach aphid (Myzus persicae) can suck on the compound preparation.
(§6) After 5 days mortality in % is determined. 100% means all aphids have been killed and 0% means none of the aphids have been killed.

[9] = tested on: cotton aphid (Aphis gossypii); test: Aphis gossypii oral test; conditions: 120 h, after 5 days
Method: Aphis gossypii—Oral Test • Solvent: 100 Parts by Weight Acetone
as §4
as §5, with “cotton” for “green peach”, “(Aphis gossypii)” for “(Myzus persicae)”
as §6

[10] = tested on: larvae of the southern green stink bug (Nezara viridula); test: Nezara viridula spray test; conditions: 96 h, barley plants, after 4 days
Method: Nezara viridula—Spray Test • Solvent: 78.0 parts by weight of acetone • 1.5 parts by weight of dimethylformamide • Emulsifier: alkylarylpolyglycol ether
as §2, with “solvent,” for “solvents”, “and the concentrate” for “and”
Barley plants (Hordeum vulgare) are sprayed with a test solution containing the desired concentration of the active ingredient and are infested with larvae of the southern green stink bug (Nezara viridula).
After 4 days mortality in % is determined. 100% means all the stink bugs have been killed; 0% means none of the stink bugs have been killed.

[11] = tested on: green peach aphid (Myzus persicae); test: Myzus persicae spray test; conditions: foliar, 120 h, Chinese cabbage leaf disks, after 5 days
Method: Myzus persicae—Spray Test • Solvent: 78.0 parts by weight acetone • 1.5 parts by weight dimethylformamide • Emulsifier: alkylarylpolyglycol ether
as §2
Chinese cabbage (Brassica pekinensis) leaf disks infected with all instars of the green peach aphid (Myzus persicae), are sprayed with a preparation of the active ingredient of the desired concentration.
as §6

[12] = tested on: adult brown dog ticks (Rhipicephalus sanguineus); test: Rhipicephalus sanguineus in-vitro contact test with adult brown dog ticks; conditions: 1 μg/cm^2 (=100 g/ha), after 48 hours
Method: Rhipicephalus sanguineus—In-Vitro Contact Tests with Adult Brown Dog Ticks
as §3
After the solvent has evaporated, each test tube is filled with 5-10 adult brown dog ticks (Rhipicephalus sanguineus), closed with a perforated lid and incubated in a lying position at room temperature and relative humidity. After 48 hours efficacy is determined. The ticks are patted on the ground of the tubes and are incubated on a heating plate at 45-50° C. for at most 5 minutes. Immotile or uncoordinated moving ticks, which are not able to escape the heat by climbing upwards, are marked as dead or moribund.
An efficacy of 100% means all ticks are dead or moribund; 0% means no ticks are dead or moribund.

[13] = tested on: adult mosquitoes Culex quinquefasciatus strain P00; test: Culex quinquefasciatus test (CULXFA surface treatment & contact assay); conditions: surface concentration 20 mg/m^2, 30 minutes exposure, 24 hours after contact, read-out: efficacy (mortality)
Method: Culex quinquefasciatus Test (CULXFA Surface Treatment & Contact Assay) • Solvent: Aceton+2000 ppm rapeseed oil methyl ester (RME)
as §1, with “2,000” for “2000”, “mosquitoes” for “flies”, “Culex quinquefasciatus” for “Musca domestica”, “P00” for “WHO-N”

Compound | mortality at 20 mg/m2 [2] [%] | mortality at 100 g/ha [3] [%] | mortality at 20 mg/m2 [4] [%] | pest or weed control at 1 µg/cm2, 100 g/ha [5] [%] | mortality at 500 g/ha [6] [%] | pest or weed control at 32 µg/disc, 100 g/ha [7] [%] | mortality at 4 mg/m2 [4] [%] | mortality at 100 g/ha [11] [%] | efficacy (ticks dead or moribund) [12] [%] | further results
C[C@H](NC(=O)c1cc(OC(F)(F)F)cc(C2CC2)c1)c1nc2cccnc2n1-c1ccc(C#N)cn1 [Example I-2] | 80 to 100 | 100 | 80 to 100 | 100 |  |  |  |  |  | efficacy (infertile eggs) [1]: 100%; pest or weed control at 5 µg/cm2, 500 g/ha ([5]; 5 μg/cm^2 (=500 g/ha)): 100%
C[C@H](NC(=O)c1cc(OC(F)(F)F)cc(S(C)(=O)=O)c1)c1nc2cccnc2n1-c1ccc(C#N)cn1 [Example I-4] |  | 100 |  |  | 90 | 100 | 80 to 100 |  |  | mortality at 20 ppm [8]: 100%; mortality at 100 ppm [9]: 100%; mortality at 500 g/ha [10]: 100%
C[C@H](NC(=O)c1cc(C#N)cc(C2(C#N)CC2)c1)c1nc2cccnc2n1-c1ccc(C#N)cn1 [Example I-6] |  | 100 |  | 90 |  |  | 80 to 100 | 90 |  | 
CC(NC(=O)c1cc(C(F)(F)F)cc(C(F)(F)F)c1)c1nc2cccnc2n1-c1ccc(Cl)cn1 (stereo not drawn) [Example I-8] | 80 to 100 | 100 | 80 to 100 | 100 |  | 100 |  |  | 80 | 
CC(NC(=O)c1cc(OC(F)(F)F)cc(OC(F)(F)F)c1)c1nc2cccnc2n1-c1ccc(Cl)cn1 (stereo not drawn) [Example I-9] | 80 to 100 | 100 |  | 80 |  | 100 |  |  |  | mortality at 500 g/ha ([11]; 500 g/ha): 90%; mortality at 20 ppm [8]: 100%; mortality at 100 ppm [9]: 100%
CC(NC(=O)c1cc(OC(F)(F)F)cc(C2CC2)c1)c1nc2cccnc2n1-c1ccc(Cl)cn1 (stereo not drawn) [Example I-13] |  |  |  | 90 |  |  |  |  | 80 | 
C[C@H](NC(=O)c1cc(C(F)F)n(C)n1)c1nc2cccnc2n1-c1ccc(C#N)cn1 [Example I-17] |  |  |  |  |  |  |  |  | 100 | 
CC(NC(=O)c1cc(C(F)(F)F)cc(C(F)(F)F)c1)c1nc2cccnc2n1-c1ccc(C(=O)N(C)C)cn1 (stereo not drawn) [Example I-26, 6-(2-{1-[3,5-bis(trifluoromethyl)benzamido]ethyl}-3H-imidazo[4,5-b]pyridin-3-yl)-N,N-dimethylnicotinamide] |  |  | 80 to 100 |  | 100 |  |  | 90 |  | 
CC(NC(=O)c1cc(C(F)(F)F)cc(C(F)(F)F)c1)c1nc2cccnc2n1-c1ccc(C#N)cn1 (stereo not drawn) [Example I-35] | 80 to 100 | 100 | 80 to 100 |  |  | 100 | 80 to 100 | 100 |  | mortality at 20 mg/m2 [13]: 80 to 100%; mortality at 4 mg/m2 [2]: 80 to 100%
CC(NC(=O)c1cc(OC(F)F)cc(OC(F)F)c1)c1nc2cccnc2n1-c1ccc(C#N)cn1 (stereo not drawn) [Example I-40] | 80 to 100 | 100 | 80 to 100 |  | 90 | 100 | 80 to 100 |  |  | mortality at 4 mg/m2 [2]: 80 to 100%
